Assay results reported in patent US12084422B2, “Phenyl-n-quinoline derivatives for treating a RNA virus infection” (ABIVAX, priority 2018, dated 2024).

Columns and labels:
[1] = tested on: Chikungunya Virus (CHIKV) strain LR2006-OPY1 with GFP modification (CHIK 5'LR); assay: Inhibition of Chikungunya virus (CHIKV) production in infected HEK293T cell line (GFP fluorescence); type: cell-based; details: HEK-293T, infected HEK293T cells; for inhibition at 1 µM: compounds at 1 μM, MOI 0.1, 22 h, values above 100 lowered to 100, read-out: % CHIKV Inhibition Mean (n = 2); for IC50: second round of experiments
RSV A2 = assay: Screening for RSV inhibition using Viral ToxGlo assay in HEp-2 cells; type: cell-based; details: human respiratory syncytial virus, HEp-2, 72 h
Procedure: Protocol for Screening Antiviral Compounds for RSV Inhibition and Cytotoxicity Using Viral ToxGlo Assay
HEp-2 cells were maintained in Eagle's minimum essential medium (EMEM) with Earle's BSS adjusted to contain 2 mM L-glutamine, 10% fetal bovine serum, 100 U/ml penicillin and 100 μg/ml streptomycin. For the purposes of the screening assay they were grown to 90% confluency, trypsinized and recovered. The trypsin was neutralised with cell culture media and cells were centrifuged at 150×g for 5 minutes before discarding the supernatant and resuspending cell pellet in assay media (EMEM with Earle's BSS adjusted to contain 2 mM L-glutamine, 2% fetal bovine serum and 100 U/ml penicillin and 100 μg/ml streptomycin). The cells were seeded into white clear-bottomed cell culture plates at a density of 1.5×10^4 cells/well in 50 μl and 4×10^3 cells/well in 25 μl for 96 well plates and 384 well plates respectively. For the media/background control column assay media only was added. Cell plates were placed in a humid chamber and incubated overnight at 37° C./5% CO2. After overnight incubation cells were checked for confluency and healthy appearance.
Test articles were made up at 10× test concentration in a maximum DMSO concentration of 10% (final assay concentration maximal 1% DMSO) and added to the cell plates in volumes of 10 μl for 96 well plates and 5 μl for 384 well plates. For cell control and virus control wells the test article solvent only was added. Virus or assay media for cytotoxicity test wells and media/cell control wells was added immediately after test articles at an MOI of 0.5, 40 or 20 μl for 96 and 384 well plates respectively. Virus suspension was prepared by thawing RSV A2 frozen stocks and diluting to the required concentration of plaque forming units in assay media on ice.
Cell plates were further incubated inside a humid chamber for 72 h p.i at 37° C./5% CO2. After the incubation period cells were observed under the microscope to check for characteristic cytopathic effect in virus control wells and healthy cells in the cell control wells. After plates were adjusted to room temperature 20/40 μl Viral ToxGlo (Promega) was added to each well of the 384/96 well cell plates. Plates were incubated at room temperature, protected from light on a plate rocker for 20 minutes before measuring the luminescence on a spectrophotometer (Biotek Synergy HTX).
RSV inhibition was calculated as percentage of cytopathic effect inhibition relative to the virus control and cytotoxicity as percentage of cell survival relative to cell control wells. This allowed EC50 values to be calculated for each test article where a virus inhibition or cytotoxic dose response was identified. EC50 values ranging between 0.001 µM and 5 μM could thus be determined for compounds 1, 6, 10, 13, 28, 38, 43, 47, 48, 49, 50, 51, 52, 53, 54, 55, 56 and 57.

## Cc1cc(OC(C)C)ccc1Nc1ccc2cccc(Cl)c2n1 [Compound 10, 8-chloro-N-(4-isopropoxy-2-methylphenyl)quinolin-2-amine]
[1]
  inhibition at 1 µM: 100%
  IC50: 1 to 200 nM
RSV A2
  EC50: 585 nM

## Cc1cc(OC(C)C)c(C)cc1Nc1ccc2cccc(Cl)c2n1 [Compound 43, 8-chloro-N-(4-isopropoxy-2,5-dimethylphenyl)quinolin-2-amine]
[1]
  IC50: 1 to 200 nM
RSV A2
  EC50: 348 nM

## CCc1cc(OC(C)C)ccc1Nc1ccc2cccc(Cl)c2n1 [Compound 13, 8-chloro-N-(2-ethyl-4-isopropoxyphenyl)quinolin-2-amine]
[1]
  inhibition at 1 µM: 100%
  IC50: 1 to 200 nM
RSV A2
  EC50: 1180 nM
